Test: Cytotoxicity against human KV/MDR cells at 100 uM after 48 hrs by MTT assay
Type: functional
Conditions: read-out: GI

In the case of `C[C@@H]1C[C@H](O)CCCc2cc(O)cc(O)c2C(=O)O1`, the inhibition of growth at 100 µM was 42.4%.
For `C[C@@H]1C[C@@H](O)CCCc2cc(O)cc(O)c2C(=O)O1`, the inhibition of growth at 100 µM was 41.6%.

From ChEMBL document CHEMBL1155500, “The metabolites of mangrove endophytic fungus Zh6-B1 from the South China Sea” (2010)
